Consider 25 molecules from ChEMBL document CHEMBL3991601, “The target landscape of clinical kinase drugs” (Science, 2017).

Usually Kd stands for the equilibrium constant for the complex coming apart.

Active and inactive are the calls of the source.

For assay [1], the target named is T1, Signal recognition particle receptor subunit alpha (Homo sapiens, UniProt P08240).
T1 sequence (P08240 whole entry): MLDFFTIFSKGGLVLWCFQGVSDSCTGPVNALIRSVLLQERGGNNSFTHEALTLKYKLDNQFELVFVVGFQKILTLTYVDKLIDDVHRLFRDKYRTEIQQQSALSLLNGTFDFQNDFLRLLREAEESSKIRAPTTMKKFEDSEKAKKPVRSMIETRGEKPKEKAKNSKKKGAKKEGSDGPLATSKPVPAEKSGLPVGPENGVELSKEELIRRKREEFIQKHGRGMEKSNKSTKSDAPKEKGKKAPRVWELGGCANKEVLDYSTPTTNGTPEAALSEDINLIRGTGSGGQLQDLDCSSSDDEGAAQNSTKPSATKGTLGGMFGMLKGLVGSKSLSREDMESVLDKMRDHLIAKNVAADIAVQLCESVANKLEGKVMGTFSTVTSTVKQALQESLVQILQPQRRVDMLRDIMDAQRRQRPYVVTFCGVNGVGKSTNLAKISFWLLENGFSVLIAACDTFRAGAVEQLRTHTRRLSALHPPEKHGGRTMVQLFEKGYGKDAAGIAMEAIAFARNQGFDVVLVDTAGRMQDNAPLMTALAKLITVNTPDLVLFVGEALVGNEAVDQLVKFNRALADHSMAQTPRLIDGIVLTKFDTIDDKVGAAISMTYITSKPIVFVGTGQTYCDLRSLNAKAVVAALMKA

The next assay deals with TGF-beta receptor type-2 (Homo sapiens, UniProt P37173).
For assay [2], the target named is T2, RNA cytidine acetyltransferase (Homo sapiens, UniProt Q9H0A0).
T2 sequence (Q9H0A0 whole entry): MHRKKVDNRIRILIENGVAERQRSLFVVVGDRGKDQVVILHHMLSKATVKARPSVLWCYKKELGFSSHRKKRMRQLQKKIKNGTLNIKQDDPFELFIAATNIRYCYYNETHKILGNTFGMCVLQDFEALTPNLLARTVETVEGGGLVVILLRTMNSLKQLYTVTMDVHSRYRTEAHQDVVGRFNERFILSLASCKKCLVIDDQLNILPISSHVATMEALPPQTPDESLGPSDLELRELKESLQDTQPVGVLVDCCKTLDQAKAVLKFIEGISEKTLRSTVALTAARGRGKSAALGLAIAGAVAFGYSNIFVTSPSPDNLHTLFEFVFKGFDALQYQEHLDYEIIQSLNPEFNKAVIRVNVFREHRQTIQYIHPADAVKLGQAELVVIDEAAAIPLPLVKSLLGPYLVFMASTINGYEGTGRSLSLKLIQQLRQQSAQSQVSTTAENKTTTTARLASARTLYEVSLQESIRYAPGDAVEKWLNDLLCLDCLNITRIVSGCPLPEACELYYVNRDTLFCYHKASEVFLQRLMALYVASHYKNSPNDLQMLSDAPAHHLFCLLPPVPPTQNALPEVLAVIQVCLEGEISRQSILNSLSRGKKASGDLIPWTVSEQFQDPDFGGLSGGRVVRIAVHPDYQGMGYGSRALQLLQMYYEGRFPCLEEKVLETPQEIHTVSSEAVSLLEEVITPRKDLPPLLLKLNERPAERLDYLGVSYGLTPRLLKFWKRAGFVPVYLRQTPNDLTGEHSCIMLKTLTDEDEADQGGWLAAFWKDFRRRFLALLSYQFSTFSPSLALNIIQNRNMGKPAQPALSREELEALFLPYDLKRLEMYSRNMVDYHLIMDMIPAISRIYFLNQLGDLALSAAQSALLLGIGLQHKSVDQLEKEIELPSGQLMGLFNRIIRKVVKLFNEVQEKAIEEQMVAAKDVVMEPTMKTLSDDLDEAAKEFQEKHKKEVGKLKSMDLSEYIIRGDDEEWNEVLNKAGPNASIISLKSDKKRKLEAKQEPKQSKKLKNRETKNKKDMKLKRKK

The target in assay [3] is T3, Serine/threonine-protein kinase PLK4 (Homo sapiens, UniProt O00444).
T3 sequence (O00444 whole entry): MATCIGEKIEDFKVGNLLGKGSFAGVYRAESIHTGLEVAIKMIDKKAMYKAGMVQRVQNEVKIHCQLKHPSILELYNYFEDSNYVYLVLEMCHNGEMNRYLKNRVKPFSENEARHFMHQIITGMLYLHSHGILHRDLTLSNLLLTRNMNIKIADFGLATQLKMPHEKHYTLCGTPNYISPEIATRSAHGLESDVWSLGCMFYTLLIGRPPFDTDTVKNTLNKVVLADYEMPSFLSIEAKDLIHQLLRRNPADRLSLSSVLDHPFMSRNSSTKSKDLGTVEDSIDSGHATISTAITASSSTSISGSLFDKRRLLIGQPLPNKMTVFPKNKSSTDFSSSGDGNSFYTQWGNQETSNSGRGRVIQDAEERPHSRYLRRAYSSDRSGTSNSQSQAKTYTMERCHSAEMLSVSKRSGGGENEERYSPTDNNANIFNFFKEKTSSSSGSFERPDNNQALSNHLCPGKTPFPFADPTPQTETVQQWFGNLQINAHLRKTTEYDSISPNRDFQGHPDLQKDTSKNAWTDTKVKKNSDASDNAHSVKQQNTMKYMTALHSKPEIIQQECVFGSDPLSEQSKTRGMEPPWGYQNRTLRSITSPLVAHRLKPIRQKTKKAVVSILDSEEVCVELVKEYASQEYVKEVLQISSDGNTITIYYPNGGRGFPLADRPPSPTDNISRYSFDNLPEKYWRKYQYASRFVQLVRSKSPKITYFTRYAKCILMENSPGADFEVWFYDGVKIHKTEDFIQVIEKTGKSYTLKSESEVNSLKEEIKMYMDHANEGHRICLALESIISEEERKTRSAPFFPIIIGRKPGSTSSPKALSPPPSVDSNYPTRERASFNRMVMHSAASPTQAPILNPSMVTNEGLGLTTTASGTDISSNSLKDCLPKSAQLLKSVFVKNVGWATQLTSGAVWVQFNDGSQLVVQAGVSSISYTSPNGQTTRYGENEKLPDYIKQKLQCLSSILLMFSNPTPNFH
Also: in the data inactive means no Kd found up to 30 µM.

TGF-beta receptor type-2, sequence (P37173 whole entry): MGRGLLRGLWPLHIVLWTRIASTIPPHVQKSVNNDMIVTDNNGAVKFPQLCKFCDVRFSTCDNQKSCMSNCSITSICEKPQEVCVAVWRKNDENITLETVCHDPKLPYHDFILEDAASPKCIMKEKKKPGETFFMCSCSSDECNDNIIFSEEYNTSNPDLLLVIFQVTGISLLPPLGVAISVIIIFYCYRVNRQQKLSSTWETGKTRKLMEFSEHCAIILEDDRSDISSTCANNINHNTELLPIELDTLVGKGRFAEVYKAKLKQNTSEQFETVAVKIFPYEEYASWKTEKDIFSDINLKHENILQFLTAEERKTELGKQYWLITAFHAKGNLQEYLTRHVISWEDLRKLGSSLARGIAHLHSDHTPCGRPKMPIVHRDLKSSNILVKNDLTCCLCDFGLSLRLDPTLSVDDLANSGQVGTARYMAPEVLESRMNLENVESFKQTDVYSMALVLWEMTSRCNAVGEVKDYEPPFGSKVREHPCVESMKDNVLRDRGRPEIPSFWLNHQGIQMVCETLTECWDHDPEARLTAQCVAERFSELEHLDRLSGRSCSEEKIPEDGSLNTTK

Take `COc1cc2nccc(Oc3ccc(NC(=O)NC4CC4)c(Cl)c3)c2cc1C(N)=O` [LENVATINIB]: the Kd (in assay [1]; on TGF-beta receptor type-2; in assay [2]) was > 30 µM (inactive) each time.
For the molecule `CO[C@H]1C[C@@H]2CC[C@@H](C)[C@@](O)(O2)C(=O)C(=O)N2CCCC[C@H]2C(=O)O[C@H]([C@H](C)C[C@@H]2CC[C@@H](OCCO)[C@H](OC)C2)CC(=O)[C@H](C)/C=C(\C)[C@@H](O)[C@@H](OC)C(=O)[C@H](C)C[C@H](C)/C=C/C=C/C=C/1C` [EVEROLIMUS], the Kd (in assay [3]; in assay [1]; on TGF-beta receptor type-2; in assay [2]) was > 30 µM (inactive) in each case.
Turning to `Cc1ccc(NC(=O)c2ccc(CN3CC[C@H](N(C)C)C3)c(C(F)(F)F)c2)cc1Nc1nccc(-c2cncnc2)n1` [BAFETINIB], the Kd (in assay [3]; in assay [1]; on TGF-beta receptor type-2; in assay [2]) was > 30 µM (inactive) each time.
For the molecule `CC(C)Nc1cc(-c2c[nH]c(C(=O)N[C@H](CO)c3cccc(Cl)c3)c2)c(Cl)cn1` [ULIXERTINIB], the Kd (in assay [3]; in assay [1]; at TGF-beta receptor type-2; in assay [2]) was > 30 µM (inactive) in each case.
In the case of `O=C(Nc1cccc(Cl)c1)Nc1ncc(CCNc2ncnc3ccsc23)s1` [SNS-314], the Kd (on TGF-beta receptor type-2; in assay [2]) was > 30 µM (inactive) in each case.
With `O=C1NC(=O)/C(=C/c2ccc3nccc(-c4ccncc4)c3c2)S1` [GSK-1059615], the Kd (in assay [3]; in assay [1]; on TGF-beta receptor type-2; in assay [2]) was > 30 µM (inactive) throughout.
On to `Cc1cn(-c2cc(NC(=O)c3ccc(C)c(Nc4nccc(-c5cccnc5)n4)c3)cc(C(F)(F)F)c2)cn1` [NILOTINIB], for which the Kd in assay [1] and in assay [2] was > 30 µM (inactive) throughout.
Regarding `COc1cc(CCc2cc(NC(=O)c3ccc(N4C[C@@H](C)N[C@@H](C)C4)cc3)n[nH]2)cc(OC)c1` [AZD-4547], the Kd (in assay [3]; in assay [1]; on TGF-beta receptor type-2; in assay [2]) was > 30 µM (inactive) in each case.
In the case of `C[C@@H]1CN(Cc2ccc(F)cc2)[C@@H](C)CN1C(=O)c1cc2c(C(=O)C(=O)N(C)C)cn(C)c2cc1Cl` [TALMAPIMOD], the Kd (in assay [3]; in assay [1]; on TGF-beta receptor type-2; in assay [2]) was > 30 µM (inactive) in each case.
For `CCS(=O)(=O)N1CC(CC#N)(n2cc(-c3ncnc4[nH]ccc34)cn2)C1` [BARICITINIB], the Kd (in assay [3]; in assay [1]; at TGF-beta receptor type-2; in assay [2]) was > 30 µM (inactive) in each case.
On to `COc1ccc(-c2ccc3c(N4CCOC[C@@H]4C)nc(N4CCOC[C@@H]4C)nc3n2)cc1CO` [AZD-8055], for which the Kd (in assay [3]; in assay [1]; on TGF-beta receptor type-2; in assay [2]) was > 30 µM (inactive) in each case.
For `Nc1nc(N)c2nc(-c3cccc(O)c3)c(-c3cccc(O)c3)nc2n1` [TG100-115], the Kd in assay [1] and in assay [2] was > 30 µM (inactive) throughout.
`CN1CCN(c2ccc3nc(-c4c(N)c5c(F)cccc5[nH]c4=O)[nH]c3c2)CC1` [DOVITINIB]: the Kd in assay [2] is > 30 µM (inactive).
On to `Cc1cc(Nc2cc(N3CCN(C)CC3)nc(/C=C/c3ccccc3)n2)n[nH]1` [ENMD-2076], for which the figures for the Kd (in assay [1]; at TGF-beta receptor type-2; in assay [2]) were 0.008 µM, 2.35 µM (active) and > 30 µM (inactive), respectively.
Turning to `CNC(=O)c1ccc(C)c(-n2c(C)cc(OCc3ccc(F)cc3F)c(Br)c2=O)c1` [PH-797804], the Kd (in assay [3]; on TGF-beta receptor type-2; in assay [2]) was > 30 µM (inactive) throughout.
For the molecule `Cc1nc(N)sc1-c1ccnc(Nc2ccc(N3CCOCC3)cc2)n1` [CYC-116], the Kd in assay [1] was > 30 µM (inactive); at TGF-beta receptor type-2 it was 0.3 µM (active); in assay [2] it was > 30 µM (inactive).
Turning to `C[C@@H](c1ccc2nccn2c1)n1nnc2ncc(-c3cnn(C)c3)nc21` [SAVOLITINIB], the Kd (in assay [1]; at TGF-beta receptor type-2; in assay [2]) was > 30 µM (inactive) throughout.
In the case of `CCn1c(-c2nonc2N)nc2c(C#CC(C)(C)O)ncc(OC[C@H]3CCCNC3)c21` [GSK-690693], the Kd in assay [1] and in assay [2] was > 30 µM (inactive) in each case.
Regarding `CCCS(=O)(=O)Nc1ccc(F)c(C(=O)c2c[nH]c3ncc(-c4ccc(Cl)cc4)cc23)c1F` [VEMURAFENIB], the Kd is > 30 µM (inactive) in assay [3], 3.4 µM (active) at TGF-beta receptor type-2 and > 30 µM (inactive) in assay [2].
Turning to `N[C@@H]1CCCN(c2c(/C=C3\SC(=O)NC3=O)cccc2-c2ccccc2)C1`, the Kd in assay [3], in assay [1] and in assay [2] was > 30 µM (inactive) throughout.
Consider `OCCn1cc(-c2cnc3nnn(Cc4ccc5ncccc5c4)c3n2)cn1` [PF-04217903], for which the Kd (in assay [3]; on TGF-beta receptor type-2; in assay [2]) was > 30 µM (inactive) each time.
In the case of `CCn1c(=O)c(-c2cc[nH]n2)cc2c(C)nc(N)nc21` [VOXTALISIB], the Kd in assay [3], in assay [1] and in assay [2] was > 30 µM (inactive) in each case.
Turning to `Cn1ncc(Cl)c1-c1cc(C(=O)N[C@H](CN)Cc2cccc(F)c2)sc1Cl` [AFURESERTIB], the Kd (in assay [3]; at TGF-beta receptor type-2; in assay [2]) was > 30 µM (inactive) in each case.
Turning to `COC(=O)[C@@]1(O)C[C@H]2O[C@]1(C)n1c3ccccc3c3c4c(c5c6ccccc6n2c5c31)C(=O)NC4` [K-252A], the figures for the dissociation constant (Kd) (in assay [3]; at TGF-beta receptor type-2; in assay [2]) were 0.073 µM (active), > 30 µM (inactive) and > 30 µM (inactive), respectively.
Take `CNC(=O)CN1CCC(Oc2cc3c(Nc4cccc(Cl)c4F)ncnc3cc2OC)CC1` [SAPITINIB]: the Kd (in assay [3]; on TGF-beta receptor type-2; in assay [2]) was > 30 µM (inactive) throughout.
